Measured values reported in patent US20160279110A1, “COMPOSITIONS AND METHODS FOR TREATING CANCER” (UNIVERSITY OF ROCHESTER, priority 2015, published 2016).

Key:
[1] = test system: UPF1; assay: Western blot of UPF1 CP generation in HEK293T cells; format: cell-based, human; conditions: 300 μg/mL CHX or 1 μM staurosporine
Method: (§1) FIG. 10b is essentially as in a, but using lysates of HEK293T cells exposed to 1 μM staurosporine. FIG. 10c is essentially as in a, but using lysates of human Daudi B lymphoblasts exposed to 40 ng/mL TNF-α or 2 μg/mL doxorubicin. FIG. 10d is essentially as in a, but using lysates of human Jurkat T cells exposed to 1 μM staurosporine. FIG. 10e is essentially as in a, but using lysates of canine MDCK cells exposed to 2 μM staurosporine. FIG. 10f is essentially as in a, but using lysates of bovine MDBK cells exposed to 2 μM staurosporine. FIG. 10g is essentially as in a, but using lysates of Chinese Hamster Ovary (CHO) cells exposed to 2 μM staurosporine. FIG. 10h is essentially as in a, but using lysates of African green monkey COS-7 cells exposed to 2 μM staurosporine or 2 μg/mL doxorubicin. At least two apoptotic inducers were used for each cell line, and at least two cell lines were tested with each apoptotic inducer.
(§2) Cells were lysed, and protein was isolated using hypotonic buffer that consists of 10 mM Tris-C1, pH 7.4, 10 mM NaCl, 2 mM EDTA, 0.5% Triton X-100, 2 mM benzamidine, 1 mM PMSF, NEM (50 μg/mL), 1× phosphatase inhibitor cocktail (Roche), and 1× protease inhibitor cocktail (Roche; Basel, Switzerland). […] Immunoreactivity was assessed using SuperSignal West Pico or Femto (Pierce Biotechnology; Waltham, Mass.). […]

[2] = test system: UPF1; assay: Western blot of UPF1 CP generation in C2C12 myoblasts; format: cell-based, mouse; conditions: C2C12, CHX 100 or 300 μg/ml, ETP 100 μM 5 h pulse
Method: CHX concentrations were 100 or 300 μg ml^−1, and a 5 h pulse of ETP was used at 100 μM. At least two apoptotic inducers were used for each cell line, and at least two cell lines were tested with each apoptotic inducer.
Cells were lysed, and protein was isolated using hypotonic buffer that consists of 10 mM Tris-C1, pH 7.4, 10 mM NaCl, 2 mM EDTA, 0.5% Triton X-100, 2 mM benzamidine, 1 mM PMSF, NEM (50 μg/mL), 1× phosphatase inhibitor cocktail (Roche), and 1× protease inhibitor cocktail (Roche; Basel, Switzerland). After 10 minutes of incubation at 4° C., NaCl was added to 150 mM, and lysates were cleared by centrifugation. […] Immunoreactivity was assessed using SuperSignal West Pico or Femto (Pierce Biotechnology; Waltham, Mass.).

[3] = test system: UPF1; assay: Western blot of UPF1 CP generation in HeLa cells; format: cell-based, human
Method: […] At least two apoptotic inducers were used for each cell line, and at least two cell lines were tested with each apoptotic inducer.
UPF1 CP may result from cleavage of endogenous UPF1 or the transfected construct, but the use of anti-FLAG allows unambiguous assignment of UPF1-FLAG CP as derived from MYC-UPF1-FLAG. α, anti; h, hour(s). […] To serve as molecular weight standards for UPF1 CP, lysates of MCF7 cells transiently expressing a UPF1-FLAG protein encompassing the residues specified were also analyzed. […] The D37 cleavage site encompassing P4-P1 residues is boxed. […] Immunoblots are representative of at least 2 independent experiments.
as §2
Inventories of in vivo apoptotic cleavage events indicate that cleavage specificity in living cells is determined chiefly by an aspartic acid residue at the P1 position; P4-P2 residues contribute far less to specificity in cells than is indicated by in vitro-derived peptide-based substrate profiles. […]

[4] = test system: UPF1; assay: Western blot of UPF1 CP generation in COS-7 cells; format: cell-based, African green monkey; conditions: COS-7, 2 μM staurosporine or 2 μg/mL doxorubicin
Method: as §1
(§3) Cells were lysed, and protein was isolated using hypotonic buffer that consists of 10 mM Tris-C1, pH 7.4, 10 mM NaCl, 2 mM EDTA, 0.5% Triton X-100, 2 mM benzamidine, 1 mM PMSF, NEM (50 μg/mL), 1× phosphatase inhibitor cocktail (Roche), and 1× protease inhibitor cocktail (Roche; Basel, Switzerland). […] Immunoreactivity was assessed using SuperSignal West Pico or Femto (Pierce Biotechnology; Waltham, Mass.).

[5] = test system: UPF1; assay: Western blot of UPF1 CP generation in CHO cells; format: cell-based, Chinese hamster; conditions: 2 μM staurosporine
Method: as §1, §3

[6] = test system: UPF1; assay: Western blot of UPF1 CP generation in Jurkat T cells; format: cell-based, human; conditions: 1 μM staurosporine
Method: as §1, §2

[7] = test system: UPF1; assay: Western blot of UPF1 CP generation in MDBK cells; format: cell-based, bovine; conditions: 2 μM staurosporine
Method: as §1, §3

[8] = test system: UPF1; assay: Western blot of UPF1 CP generation in MDCK cells; format: cell-based, canine; conditions: 2 μM staurosporine
Method: as §1, §3

[9] = test system: UPF1; assay: Western blot of UPF1 CP generation in Daudi B lymphoblasts; format: cell-based, human; conditions: 40 ng/mL TNF-α or 2 μg/mL doxorubicin
Method: as §1, §2

[10] = test system: caspases; assay: Caspase inhibitor pre-incubation before CHX, UPF1 CP western blot in HEK293T cells; format: cell-based, human; conditions: inhibitor preincubated 4 h, then CHX 300 μg/ml
Method: FIG. 3b is a diagram of N-terminally FLAG-tagged human UPF1, showing its reactivity with anti(α)-UPF1(1-416). CH, cysteine-t histidine-rich region. […] Blots are representative of two independent experiments.
Cells were lysed, and protein was isolated using hypotonic buffer that consists of 10 mM Tris-C1, pH 7.4, 10 mM NaCl, 2 mM EDTA, 0.5% Triton X-100, 2 mM benzamidine, 1 mM PMSF, NEM (50 μg/mL), 1× phosphatase inhibitor cocktail (Roche), and 1× protease inhibitor cocktail (Roche; Basel, Switzerland). After 10 minutes of incubation at 4° C., NaCl was added to 150 mM, and lysates were cleared by centrifugation. […] Immunoreactivity was assessed using SuperSignal West Pico or Femto (Pierce Biotechnology; Waltham, Mass.). […]

[11] = molecular target: T1, MYC-UPF1-FLAG WT, Q92900
T1 chain: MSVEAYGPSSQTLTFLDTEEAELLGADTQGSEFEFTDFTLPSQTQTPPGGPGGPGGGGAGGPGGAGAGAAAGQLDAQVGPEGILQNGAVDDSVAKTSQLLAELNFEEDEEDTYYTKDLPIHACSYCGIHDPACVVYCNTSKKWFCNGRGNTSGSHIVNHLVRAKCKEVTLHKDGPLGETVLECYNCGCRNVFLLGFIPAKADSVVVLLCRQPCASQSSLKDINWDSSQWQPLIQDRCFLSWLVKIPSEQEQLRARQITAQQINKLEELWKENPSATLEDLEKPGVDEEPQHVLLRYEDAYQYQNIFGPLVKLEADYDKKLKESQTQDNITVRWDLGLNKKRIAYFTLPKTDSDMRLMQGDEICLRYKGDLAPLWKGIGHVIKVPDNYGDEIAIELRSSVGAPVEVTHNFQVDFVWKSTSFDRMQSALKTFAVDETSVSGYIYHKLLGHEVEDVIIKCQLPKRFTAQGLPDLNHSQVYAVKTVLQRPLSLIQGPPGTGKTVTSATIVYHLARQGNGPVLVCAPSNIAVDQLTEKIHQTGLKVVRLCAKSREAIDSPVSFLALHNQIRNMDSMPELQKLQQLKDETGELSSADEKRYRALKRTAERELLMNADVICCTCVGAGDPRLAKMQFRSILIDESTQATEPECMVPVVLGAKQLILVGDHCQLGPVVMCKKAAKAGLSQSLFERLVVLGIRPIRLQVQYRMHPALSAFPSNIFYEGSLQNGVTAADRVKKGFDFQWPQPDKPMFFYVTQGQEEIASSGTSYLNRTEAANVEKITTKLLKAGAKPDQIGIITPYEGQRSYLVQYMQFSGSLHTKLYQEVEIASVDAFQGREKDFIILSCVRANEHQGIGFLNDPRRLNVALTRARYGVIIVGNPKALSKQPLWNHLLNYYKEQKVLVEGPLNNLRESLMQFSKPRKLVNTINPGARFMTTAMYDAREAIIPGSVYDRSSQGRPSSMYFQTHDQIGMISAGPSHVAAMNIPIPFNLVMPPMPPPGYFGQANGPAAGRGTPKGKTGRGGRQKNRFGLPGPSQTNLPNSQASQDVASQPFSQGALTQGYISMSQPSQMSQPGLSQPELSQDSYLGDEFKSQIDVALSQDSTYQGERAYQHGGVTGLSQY

## C[C@@H]1C[C@@H]([C@H](O)CC2CC(=O)NC(=O)C2)C(=O)[C@@H](C)C1 [CHX, cycloheximide]
[1]
  UPF1 CP generation: Generation of the UPF1 CP prior to full CASP9 and CASP3 cleavage
[2]
  UPF1 CP generation: generated a UPF1 CP prior to maximal CASP3 cleavage
[3]; HeLa expressing UPF1 WT, D27N or D75N, 300 μg/mL CHX, anti-FLAG immunoblot
  UPF1 CP level relative to uncleaved UPF1: about one-third the level of uncleaved UPF1

## COc1cc([C@@H]2c3cc4c(cc3[C@@H](O[C@@H]3O[C@@H]5CO[C@@H](C)O[C@H]5[C@H](O)[C@H]3O)[C@H]3COC(=O)[C@H]23)OCO4)cc(OC)c1O [ETP, etoposide]
[2]
  UPF1 CP generation: generated a UPF1 CP prior to maximal CASP3 cleavage
[3]; HeLa, ETP 44 μM 6 h
  UPF1 CP generation: induced generation of a UPF1 CP before full induction of cleaved initiator caspase 9 (CASP9) and cleaved executioner CASP3

## CN[C@@H]1C[C@H]2O[C@@](C)([C@@H]1OC)n1c3ccccc3c3c4c(c5c6ccccc6n2c5c31)C(=O)NC4 [staurosporine]
[1]
  UPF1 CP generation: yielded two UPF1 CPs, prior to full cleavage of CASP9 and CASP3
[4]
  UPF1 CP generation: yielded a UPF1 CP
[5]
  UPF1 CP generation: led to UPF1 CP production
[6]
  UPF1 CP generation: yielded a UPF1 CP prior to maximal cleavage of CASP3 or PARP
[7]
  UPF1 CP generation: led to UPF1 CP production
[8]
  UPF1 CP generation: led to UPF1 CP production

## TNF-α
[9]
  UPF1 CP generation: led to generation of the UPF1 CP prior to maximal PARP cleavage

## Z-DEVD-fmk
[10]
  level of UPF1 CP after caspase inhibitor: nearly undetectable

## Z-VAD-fmk
[10]
  level of UPF1 CP after caspase inhibitor: nearly undetectable

B1: Active recombinant Caspase 3 (protein)
chain: SGISLDNSYKMDYPEMGLCIIINNKNFHKSTGMTSRSGTDVDAANLRETFRNLKYEVRNKNDLTREEIVELMRDVSKEDHSKRSSFVCVLLSHGEEGIIFGTNGPVDLKKITNFFRGDRCRSLTGKPKLFIIQACRGTELDCGIETDSGVDDDMACHKIPVEADFLYAYSTAPGYYSWRNSKDGSWFIQSLCAMLKQYADKLEFMHILTRVNRKVATEFESFSFDATFHAKKQIPCIVSMLTKELYFYH
[11]
  in vitro caspase cleavage, western blot: CASP3 and CASP7 cleaved MYC-UPF1-FLAG WT

B2: Active recombinant Caspase 7 (protein)
chain: AKPDRSSFVPSLFSKKKKNVTMRSIKTTRDRVPTYQYNMNFEKLGKCIIINNKNFDKVTGMGVRNGTDKDAEALFKCFRSLGFDVIVYNDCSCAKMQDLLKKASEEDHTNAACFACILLSHGEENVIYGKDGVTPIKDLTAHFRGDRCKTLLEKPKLFFIQACRGTELDDGIQADSGPINDTDANPRYKIPVEADFLFAYSTVPGYYSWRSPGRGSWFVQALCSILEEHGKDLEIMQILTRVNDRVARHFESQSDDPHFHEKKQIPCVVSMLTKELYFSQ
[11]
  in vitro caspase cleavage, western blot: CASP3 and CASP7 cleaved MYC-UPF1-FLAG WT
